Reference: US20190145953A1, “METHODS AND MATERIALS FOR ASSESSING INTESTINAL PERMEABILITY” (Mayo Foundation for Medical Education and Research, priority 2016, published 2019)
Blank lines part the entries; values can stand above or below the compound they belong to.

Legend:
[1] = Cumulative urinary excretion of oral sugars by HPLC-MS in IBS-C patients and healthy volunteers (Example 3); assay type: in vivo, human
Procedure: The following was performed to determine duodenal and colonic barrier function and endotoxin activity in females with IBS-C in comparison to healthy. 16 IBS-C (Rome III) patients and 13 matched healthy volunteers (females) were given oral lactulose, ^12C mannitol and ^13C mannitol measured cumulatively over 0-2 and 8-24 hours by HPLC-MS. 10 biopsies were obtained from duodenum and sigmoid colon. Mucosal transepithelial resistance (TER), FITC dextran (4 KDa), and E. coli K12 BioParticle flux were measured in Ussing chambers. Endotoxin activity (blood) was measured towards gram-negative bacterial lipopolysaccharide. Unpaired 2-sided t-tests were used for comparisons.

[2] = assay type: in vivo, human
Procedure: 24 healthy volunteers (12 females) aged 18-65 years are recruited. Those using NSAIDs, oral corticosteroids, artificial sweeteners (Splenda, aspartame), lactulose, mannitol, or medications affecting gastrointestinal transit are excluded. All 24 participants undergo a baseline urinary excretion assay using the three saccharides (100 mg ^13C mannitol, 100 mg ^12C mannitol, and 1000 mg lactulose) dissolved in 250 mL of water. 500 mL of water is administered 30 minutes after the sugars are ingested to aid in the production of urine. Participants are allowed regular amounts of water throughout the study, and no standardized meals are provided. Cumulative urine samples for 0-2 hours are collected while they are in the CRU and stored. Two containers are provided for the cumulative 2-8 hour collection and cumulative 8-24 hour collection. Participants are instructed to return these collections the following day. The collections are subjected to HPLC-MS for quantitative estimation of the sugars.
These participants receive 75 mg of Indomethacin orally 8 hour and 30 minutes prior to a second urinary excretion assay using the same three sugars. Finally, these participants undergo a third assay after 4 weeks from the end of the second assay in the absence of any indomethacin or other NSAIDs or perturbations. All three assays are done using the same protocol and urinary collections. Additionally, these participants undergo an upper endoscopy with duodenal biopsies at baseline and after Indomethacin challenge. The ^13C mannitol-assay based urinary excretion findings are correlated with histology findings on light microscopy and with ex vivo mucosal barrier function/permeability. For this, tw freshly obtained biopsies are mounted in 4 mL Ussing chambers (Physiological Instruments, California, USA) exposing a 0.03 cm^2 area. Transepithelial resistance is measured using Ag/AgCl electrodes with agar-salt bridges and current delivered with platinum electrodes. Macromolecular flux across biopsies are studied using FITC Dextran (4 kDa, Molecular Probes, New York). At 30-minute intervals for a total of 3 hours, basal compartment fluorescence are analyzed.
At each visit, baseline excretion of ^12C mannitol was higher than the ^13C mannitol (p<0.0001) with 5 of 73 subjects excreting >10 mg of ^12C mannitol prior to test dose administration. At visit 1, one subject excreted 62 mg of ^12C mannitol, which dropped to 28 mg after test dose administration.
This recovered completely at visit 3. Both low and high dose Indomethacin had similar effects. […] It is possible that intestinal microflora can influence the L:M based excretion assay for intestinal permeability. To test this, seven patients underwent a fourth testing following bowel prep with MoviPrep. […] This could reflect increased transit after the bowel prep resulting in less contact time between the sugar and the absorptive surface area.

[3] = human, in vivo
Procedure: The following was performed to determine if administration of ^13C-mannitol can be used to measure intestinal permeability. Ten healthy volunteers (five females) received oral sugars after 8 hours of fasting. Those volunteers using tobacco, NSAIDs, oral corticosteroids, sweeteners, lactulose, mannitol, or medications affecting gastrointestinal transit were excluded. Three saccharides (100 mg of ^13C-mannitol, 100 mg of ^12C-mannitol (regular mannitol), and 1000 mg of ^12C-lactulose (regular lactulose)) dissolved in 250 mL of water were administered. 0-2 hour cumulative mannitol and 8-24 hour cumulative lactulose or mannitol excretion were measured to assess small intestinal and colonic permeability, respectively. After baseline urine collection, collections were pooled for 0-2 hours, 2-8 hours, and 8-24 hours following administration of test sugars. High performance liquid chromatography-tandem mass spectrometry was performed to determine urinary sugar concentrations. Cumulative excretions and lactulose:mannitol (L:M) ratios (ratio of fractional excretion) were calculated. Mann-Whitney test was used for statistical analysis.

colonic bacteria = details: in vivo, po; cited from earlier work
[4] = human, in vivo; remark: listed apart in the source
Procedure: The following was performed to evaluate safety and effectiveness of oral nutritional therapy with serum-derived bovine immunoglobulin (SBI) on symptoms, epithelial barrier function, and mucosal expression of pivotal genes in small intestinal mucosa (SI) in patients with IBS-D. This open-label pilot study evaluated effects of SBI, 5.0 g twice daily for 8 weeks, in 15 patients with IBS-D (Rome III) on symptoms, tryptophan metabolism (kynurenine to tryptophan ratio), intestinal permeability [measured by two sugars (^13C-mannitol and lactulose) urine excretion: 0-2 hours (SI) and 2-8 hours (SI and colon)] and distal duodenal mucosal mRNA expression of pivotal genes including tight junction, secretory mechanisms, tissue repair proteins and chemokines. Bowel function and abdominal pain (worst and average) were evaluated using a daily diary including the Bristol Stool Form Scale, and bile acid homeostasis by fasting serum FGF-19 and 7αC4. Statistical analysis was based on ITT principles using paired tests (comparing baseline with results of therapy over 8 weeks or in final 2 weeks) and included imputation for missing data for one patient.

[5] = Indomethacin challenge, p=0.004

0-2 hr cumulative urinary excretion (mg), mean (SEM) ([1]; Healthy Volunteers (n=11)): 0.99(0.12) mg | 8-24 hr cumulative urinary excretion (mg), mean (SEM) ([1]; Healthy Volunteers (n=11)): 0.72(0.31) mg | 0-2 hr cumulative urinary excretion (mg), mean (SEM) ([1]; IBS-C (n=16)): 1.12(0.19) mg | 8-24 hr cumulative urinary excretion (mg), mean (SEM) ([1]; IBS-C (n=16)): 1.06(0.55) mg
Compound: OC[C@H]1O[C@@H](O[C@@H]2[C@@H](CO)OC(O)(CO)[C@H]2O)[C@H](O)[C@@H](O)[C@H]1O (mixture of isomers) [lactulose]

Baseline excretion ([2]; in vivo): higher | Cumulative (0-24h) mean recovery, comparison 12C vs 13C mannitol ([2]; in vivo): significantly higher | Excretion of one subject after test dose administration ([2]; in vivo): 28 mg | Excretion of one subject at baseline ([2]; in vivo): 62 mg | Subjects excreting >10 mg prior to test dose administration ([2]; in vivo): 5 of 73 | L:M ratio: Mean (SEM), 0-2 hours [3]: 0.006 | L:M ratio: Mean (SEM), 2-8 hours [3]: 0.009 | L:M ratio: Mean (SEM), 8-24 hours [3]: 0.002 | Participants with disproportionately high baseline excretion [3]: Three of the ten
Compound: OC[C@@H](O)[C@@H](O)[C@H](O)[C@H](O)CO [^12C-mannitol]
Change of excretion in the 0-2 hr interval compared with baseline ([2]; in vivo): four subjects exhibited no significant increase

Baseline excretion ([2]; in vivo): nearly undetectable | Change of excretion in the 0-2 hr interval compared with baseline ([2]; in vivo): increased in all cases | Excretion at baseline in IBS-D patients vs 8 healthy controls [4]: did not differ | L:M ratio: Mean (SEM), 0-2 hours [3]: 0.007 | L:M ratio: Mean (SEM), 2-8 hours [3]: 0.01 | L:M ratio: Mean (SEM), 8-24 hours [3]: 0.01 | Mean lower baseline contamination vs 12C mannitol [3]: 20 fold | Participants with disproportionately high baseline excretion [3]: none
Compound: ^13C-mannitol

Further lines, the compound ahead of its results:

Compound: COc1ccc2c(c1)c(CC(=O)O)c(C)n2C(=O)c1ccc(Cl)cc1 [Indomethacin]
0-2h lactulose excretion compared to baseline (visit 1) ([2]; Indomethacin challenge, p<0.0001): increased | 2-8h lactulose excretion compared to baseline (visit 1) [2, 5]: increased | 8-24h lactulose excretion compared to baseline (visit 1) [2, 5]: increased | 12C or 13C mannitol excretion with Indomethacin treatment ([2]; either excretion time-point): did not increase

Compound: OC[C@@H](O)[C@@H](O)[C@H](O)[C@H](O)CO [mannitol]
Fraction of orally ingested mannitol metabolized by colonic bacteria (colonic bacteria): about 75%
